From US12365674B2, “Inhibitors of histone deacetylase useful for the treatment or prevention of HIV infection” (Merck Sharp & Dohme LLC, priority 2019, dated 2025)

Molecular target: T1, HDAC6 (Homo sapiens, UniProt Q9UBN7)
T1 sequence (Q9UBN7 1-1215): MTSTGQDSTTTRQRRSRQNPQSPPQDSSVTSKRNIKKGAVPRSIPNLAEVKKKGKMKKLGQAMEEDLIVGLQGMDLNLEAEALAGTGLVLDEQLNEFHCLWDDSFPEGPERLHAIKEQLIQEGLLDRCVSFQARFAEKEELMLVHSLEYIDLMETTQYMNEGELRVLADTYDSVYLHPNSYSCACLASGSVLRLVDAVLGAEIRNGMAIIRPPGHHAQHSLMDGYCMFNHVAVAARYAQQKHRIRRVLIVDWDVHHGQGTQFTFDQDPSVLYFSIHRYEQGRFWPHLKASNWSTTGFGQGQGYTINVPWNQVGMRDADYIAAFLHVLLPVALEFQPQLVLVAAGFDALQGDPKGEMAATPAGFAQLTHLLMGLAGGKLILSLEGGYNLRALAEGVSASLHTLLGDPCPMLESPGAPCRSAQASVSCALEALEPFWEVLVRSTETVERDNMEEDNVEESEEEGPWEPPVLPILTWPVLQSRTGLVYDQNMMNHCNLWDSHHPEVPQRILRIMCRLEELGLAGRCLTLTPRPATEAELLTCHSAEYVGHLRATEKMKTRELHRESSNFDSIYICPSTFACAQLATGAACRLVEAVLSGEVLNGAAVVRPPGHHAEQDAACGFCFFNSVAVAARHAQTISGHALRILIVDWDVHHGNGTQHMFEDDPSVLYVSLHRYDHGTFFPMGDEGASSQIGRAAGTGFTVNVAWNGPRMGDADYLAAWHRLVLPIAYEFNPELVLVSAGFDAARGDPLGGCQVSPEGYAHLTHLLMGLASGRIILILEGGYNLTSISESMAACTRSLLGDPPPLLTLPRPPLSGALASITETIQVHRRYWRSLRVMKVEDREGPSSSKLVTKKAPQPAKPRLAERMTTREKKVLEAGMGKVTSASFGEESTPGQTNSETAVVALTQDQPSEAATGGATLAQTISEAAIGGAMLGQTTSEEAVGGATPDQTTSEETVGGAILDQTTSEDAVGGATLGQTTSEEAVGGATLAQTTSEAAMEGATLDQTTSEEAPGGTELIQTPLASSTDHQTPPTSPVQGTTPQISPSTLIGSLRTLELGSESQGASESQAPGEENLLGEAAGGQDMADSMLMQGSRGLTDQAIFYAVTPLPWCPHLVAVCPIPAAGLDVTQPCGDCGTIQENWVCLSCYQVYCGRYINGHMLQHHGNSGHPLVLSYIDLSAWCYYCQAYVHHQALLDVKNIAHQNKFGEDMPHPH
Test: Human HDAC enzyme inhibitor Fluor-de-Lys assay, HDAC6
Format: biochemical
Details: 1.3 nM enzyme, 2.5 μM substrate BML-KI104, 3 h pre-incubation, 60 min reaction; read-out: HDAC6_IC50
Source text: Recombinant human HDAC8 (catalog number BML-SE145-0100) and HDAC10 (catalog number BML-SE559-0050) enzymes, HDAC substrates BML-KI104 and BML-KI178, and HDAC developer solutions BML-KI105 and BML-KI176 were purchased from Enzo Life Sciences (Farmingdale, NY). Recombinant human HDAC5 and HDAC11 were purchased from BPS Bioscience (San Diego, CA)(catalog numbers 50045 and 50021). Substrate Boc-Lys(TFA)-AMC was obtained from Bachem (Bupendorf, Switzerland) (catalog number 1-1985). HDAC inhibitor suberoylanilide hydroxamic acid (SAHA) was obtained from Indofine (Hillsborough Township, NJ) and trichostatin A (TSA) was obtained from Sigma-Aldrich (St. Louis, MO). […] HEPES pH 8.0 was obtained from Boston BioProducts (Ashland, MA), Tween-20 from Fisher Scientific (Hampton, NH)(catalog number BP337), TCEP from Calbiochem and 7.5% bovine serum albumin (BSA) from Life Technologies (Carlsbad, CA) (catalog number 15260037). 384-well, black assay plates were obtained from Corning (Corning, NY) (catalog number 3575).
The histone deacetylase activities of HDAC1, HDAC2, HDAC3, HDAC6, and HDAC8 were measured in modified Fluor-de-Lys assays in 384-well format. In this assay, HDAC enzymes are initially incubated with an ε-acetyl (or -trifluoroacetyl)-L-lysine-containing substrate with a C-terminal amide having aminomethylcoumarin as the amine component. HDACs cleave the ε-acetyl group, rendering the resulting product susceptible to AMC cleavage by trypsin. The released AMC is then detected by its fluorescence.
The HDAC 1, 2 assays employed buffer A, which contained 20 mM HEPES, pH 8.0, 1 mM MgCl2, 137 mM NaCl, 2.7 mM KCl, 0.05% BSA. The HDAC3/SMRT assay employed buffer B, consisting of 20 mM HEPES, pH 8.0, 1 mM MgCl2, 50 mM NaCl, 2.7 mM KCl, 0.05% BSA, 0.005% Tween 20, and 10 μM IP4. The HDAC6 assay employed buffer C, consisting of 20 mM HEPES, pH 8.0, 1 mM MgCl2, 137 mM NaCl, 2.7 mM KCl, 0.5 mM TCEP (Calbiochem) and 0.05% BSA. The HDAC8 assay employed buffer D, consisting of 20 mM HEPES, pH 8.0, 1 mM MgCl2, 100 mM NaCl, 20 mM KCl, 0.1% n-octyl-β-D-glucoside (Anatrace, Maumee, OH) and 0.05% BSA. All steps were performed at room temperature (23° C.). The assay was performed by pre-incubating serial dilutions of test compounds with the target HDAC prior to initiation with substrate. Each compound was titrated in a 10-point dose response, using a 1:3 fold dilution scheme, with 0.15 ul of solution added by ECHO555 to the plate, followed by the addition of 20 μl of the appropriate HDAC isoform diluted in appropriate assay buffer. […] Final conditions used for each assay were: 1. HDAC 1, 0.3 nM total enzyme, 20 μM substrate BML-K1104; 2. HDAC 2, 1.5 nM total enzyme, 40 μM substrate BML-K1104; 3. HDAC 3/SMRT, 0.3 nM total enzyme, 20 μM substrate BML-K1104; 4. HDAC 6, 1.3 nM total enzyme, 2.5 μM substrate BML-K1104; 5. HDAC 8, 1.3 nM total enzyme, 200 μM substrate BML-K1178; the final high dose of test compound was 30 μM. For potent compounds, 900 nM was used as the final high dose. The reactions were stopped and developed by addition of 30 ul of HDAC developer solution containing a saturating level of HDAC inhibitor as follows: 1.

Row | SMILES | IC50 [µM]
1 | COc1nc2ccccc2cc1-c1cnc([C@H](COCCCC(=O)c2ncco2)NC(=O)C23CCN(CC2)CC3)[nH]1 [Compound 12, N-{(1R)-1-[5-(2-methoxyquinolin-3-yl)-1H-imidazol-2-yl]-2-[4-(1,3-oxazol-2-yl)-4-oxobutoxy]ethyl}-1-azabicyclo[2.2.2]octane-4-carboxamide] | > 45
2 | COc1cc2nc(C)ccc2cc1-c1cnc([C@H](COCCCC(=O)c2cc(C)on2)NC(=O)[C@H]2CC23CCN(C)CC3)[nH]1 [Compound 20, (1S)-N-{(1R)-1-[5-(7-methoxy-2-methylquinolin-6-yl)-1H-imidazol-2-yl]-2-[4-(5-methylisoxazol-3-yl)-4-oxobutoxy]ethyl}-6-methyl-6-azaspiro[2.5]octane-1-carboxamide] | > 0.9
